From US9340821B2, “Specific fluorescent probe based on albumin pseudo-esterase hydrolysis reaction and use thereof” (DALIAN INSTITUTE OF CHEMICAL PHYSICS, CHINESE ACADEMY OF …, priority 2013, dated 2016)
Values belong to the molecule of their own block, whether it stands above or below them.

How the values were obtained:
HSA [1] = molecular target: T1, HSA (Homo sapiens, UniProt P02768); experiment: Quantitative analysis of albumin in urine sample; conditions: human urine diluted with PBS pH 7.4, probe 10 μM, 37° C., 30 min
Description: (1) 490 μL of human urine sample was diluted by 490 μL PBS (pH 7.4, 10 mM), and then samples were incubated at 45° C. for 10 min.
(2) 20 μL fluorescent probe C (0.5 mM) was added to the above solution to make the final concentration of the fluorescent probe to 10 μM, and then samples were incubated turmoil at 37° C. for 30 min, 1 mL ice-cold CH3CN was added to the sample and stirred for 15 second, then the reaction was stopped.
(3) Detecting the fluorescence intensity of probe C (λex=342 nm, λem=416 nm) and hydrolysate C1 (λex=452 nm, λem=564 nm) at corresponding wavelength and the fluorescence intensity ratio of C1 to C was calculated.
(4) Finding the corresponding albumin level in the working curve, concentration of HSA in the sample was calculated as 48 mg/L.

HSA [2] = molecular target: T1, HSA; experiment: Quantitative analysis of HSA in recombinant expression system; conditions: 1 mg/mL recombinant HSA in PBS pH 7.4, probe 10 μM, 37° C., 30 min
Description: (1) 10 mg recombinant HSA was weighted and dissolved in PBS (pH=7.4), configuring to 1 mg/mL albumin solution at 37° C.
(2) 20 μL fluorescent probe D (0.5 mM) was added to the above solution to make the final concentration of the fluorescent probe to 10 μM, and then samples were incubated turmoil at 37° C. for 30 min, 1 mL ice-cold CH3CN was added to the sample and stirred for 15 second, then the reaction stopped.
(3) Detecting the fluorescence intensity of probe D (λex=342 nm, λem=416 nm) and hydrolysate D1 (λex=452 nm, λem=564 nm) at corresponding wavelength and the fluorescence intensity ratio of D1 to D was calculated.
(4) Based on the working curve, the concentration of HSA in this sample (1 mg/mL recombinant HSA solution) was calculated as 14.9 μM.

HSA [3] = molecular target: T1, HSA; experiment: Quantitative analysis of albumin in human plasma sample; set-up: from tissue; host or cells: human plasma (A3); human urine (A4); conditions: human plasma diluted 200 times in PBS pH 7.4, probe 10 μM, 45° C., 30 min
Description: (1) 1 μL of human plasma sample was diluted to 200 times by PBS (pH 7.4, 10 mM), then samples were incubated turmoil at 45° C. for 10 min.
(2) 4 μL fluorescent probe B (0.5 mM) was added to the above solution to make the final concentration of the fluorescent probe to 10 μM, and then samples were incubated at 45° C.
(3) After 30 min, 200 μL of ice-cold CH3CN was added to the sample and stirred, and then the reaction was stopped.
(4) Detecting the fluorescence intensity of probe B (λex=342 nm, λem=416 nm) and hydrolysate B1 (λex=452 nm, λem=564 nm) at corresponding wavelength and calculating the fluorescence intensity ratio of B1 to B, the fluorescence ratio was substituted into working curve from example 2, concentration of HSA in plasma albumin was calculated as […].

T1 sequence (P02768 25-609): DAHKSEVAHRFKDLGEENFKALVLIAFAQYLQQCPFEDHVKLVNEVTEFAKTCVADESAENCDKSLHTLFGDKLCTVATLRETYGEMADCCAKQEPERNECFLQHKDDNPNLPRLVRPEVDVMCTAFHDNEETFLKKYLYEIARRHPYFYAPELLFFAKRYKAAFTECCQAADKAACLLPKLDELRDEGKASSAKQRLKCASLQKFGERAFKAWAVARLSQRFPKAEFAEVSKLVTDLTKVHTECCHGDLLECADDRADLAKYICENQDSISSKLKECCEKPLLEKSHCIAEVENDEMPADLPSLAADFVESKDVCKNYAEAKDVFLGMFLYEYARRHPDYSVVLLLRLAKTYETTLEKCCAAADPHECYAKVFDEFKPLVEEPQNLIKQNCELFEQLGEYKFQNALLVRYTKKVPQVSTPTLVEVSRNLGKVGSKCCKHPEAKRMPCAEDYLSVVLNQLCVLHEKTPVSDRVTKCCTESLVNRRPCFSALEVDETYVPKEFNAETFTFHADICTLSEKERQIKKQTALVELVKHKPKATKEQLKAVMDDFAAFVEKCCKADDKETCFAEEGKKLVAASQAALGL

concentration of HSA in urine sample calculated from working curve (HSA [1]): 48 mg/L
SMILES: O=C(O)CCCN1C(=O)c2cccc3c(OC(=O)c4ccc(-c5ccccc5)cc4)ccc(c23)C1=O [Probe C, N-3-carboxy propyl-1,8-naphthalimide-4-phenylbenzoate]

concentration of HSA in recombinant HSA solution calculated from working curve (HSA [2]): 14.9 µM
SMILES: CCCCN1C(=O)c2cccc3c(OC(=O)c4ccc(OC)cc4)ccc(c23)C1=O [Probe D, N-n-butyl-1,8-naphthalimide-4-(4-methoxyphenylbenzoate)]

concentration of HSA in plasma calculated from fluorescence ratio (HSA [3]): 46.2 mg/mL
SMILES: CCCCN1C(=O)c2cccc3c(OC(=O)c4ccc(C)cc4)ccc(c23)C1=O [Probe B, N-n-butyl-1,8-naphthalimide-4-(4-methylphenylbenzoate)]
